In patent US12195427B2, “MASP-2 inhibitors and methods of use” (priority 2018, dated 2025):
Counter-ions that a name gives are not always drawn.

Molecular target: MASP-2 CCP2-SP (Homo sapiens (Human), UniProt O00187)
Assay: MASP-2 co-crystallization, X-ray crystallography and structure analysis (H-bonds, van der Waals contacts);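 on Ligand-pharmacophore element distance, pharmacophore element C2: distance from averaged pharmacophore element to bound ligand; missing value means element absent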;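 on Ligand-pharmacophore element distance, pharmacophore element C3: distance from averaged pharmacophore element to bound ligand; missing value means element absent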;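 on Ligand-pharmacophore element distance, pharmacophore element C4: distance from averaged pharmacophore element to bound ligand; missing value means element absent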;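 on Ligand-pharmacophore element distance, pharmacophore element C5: distance from averaged pharmacophore element to bound ligand; missing value means element absent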
Parameters: van der Waals contact distance, MASP-2 HIS 483 atom CD2 / van der Waals contact distance, MASP-2 HIS 483 atom NE2 / van der Waals contact distance, SER 654 C to compound atom / van der Waals contact distance, SER 654 O to compound atom / van der Waals contact distance, TRP 655 C to compound atom / van der Waals contact distance, MASP-2 GLY 528 atom CA / van der Waals contact distance TRP 655 atom CZ3 / van der Waals contact distance TRP 655 atom N / van der Waals contact distance TRP 655 atom CE3 / van der Waals contact distance GLY 656 atom C / van der Waals contact distance GLY 656 atom CA / van der Waals contact distance GLY 656 atom O / van der Waals contact distance, MASP-2 TYR 607 atom CD1 / van der Waals contact distance, MASP-2 PRO 606 atom O / d(C3,CA1) / d(CA1,N1)2 / d(H4,O1) / d(H4,O2) / d(O1,O2) / d(CA1,O2) / d(CA6,O1) / d(CA6,O2) / d(CA1,C5) / d(O2,H3) / d(N2,C2) / d(CA5,N2) / d(N2,C4) / d(N2,C6) / d(N2,CA3) / d(N2,O3) / d(O4,H2): unit not given beside the values
Conditions: for Ligand-pharmacophore element distance, pharmacophore element C2 / Ligand-pharmacophore element distance, pharmacophore element C3 / Ligand-pharmacophore element distance, pharmacophore element C4 / Ligand-pharmacophore element distance, pharmacophore element C5 / Ligand-pharmacophore element distance, pharmacophore element C6 / Ligand-pharmacophore element distance, pharmacophore element C7 / Ligand-pharmacophore element distance, pharmacophore element CA1 / Ligand-pharmacophore element distance, pharmacophore element CA2 / Ligand-pharmacophore element distance, pharmacophore element CA3 / Ligand-pharmacophore element distance, pharmacophore element CA4 / Ligand-pharmacophore element distance, pharmacophore element CA5 / Ligand-pharmacophore element distance, pharmacophore element CA6: Table A4-1; for d(N2,CA2) / d(O2,H3) / d(O2,N2) / d(N2,C2): Table A5-2 pharmacophore distance, S3/S4 region; for a(O1, O2, H3) / a(O1, O2, N2) / a(O2, N2, CA2) / a(O2, N2, C2): Table A6-2 pharmacophore angle
In short: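 Human MASP-2 CCP2-SP, untagged or 6His-tagged, was expressed in E. coli and crystallized. Crystals were soaked with inhibitor in crystallization solution, flash-cooled in liquid nitrogen, and diffracted with synchrotron X-rays (wavelength 1.0). Structures were solved by molecular replacement from 1Q3X and partially refined.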

[1] = Table A5-1 pharmacophore: distance between elements, S2/S1 region
[2] = Table A7-1, between pharmacophore elements of the bound compound
[3] = Table A7-2, between pharmacophore elements of the bound compound

Chain of MASP-2 CCP2-SP (O00187 445-686): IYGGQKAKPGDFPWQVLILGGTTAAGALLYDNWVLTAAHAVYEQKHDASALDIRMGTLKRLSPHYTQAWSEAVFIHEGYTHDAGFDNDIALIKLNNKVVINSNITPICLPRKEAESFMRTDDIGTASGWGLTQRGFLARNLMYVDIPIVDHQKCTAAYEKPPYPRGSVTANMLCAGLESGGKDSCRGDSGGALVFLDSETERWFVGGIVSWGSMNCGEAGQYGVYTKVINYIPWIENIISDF
Chain of MASP-2 CCP2-SP (O00187 364-432 partner): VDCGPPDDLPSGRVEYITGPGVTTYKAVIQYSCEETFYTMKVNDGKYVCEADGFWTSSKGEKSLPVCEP

Cc1nc(N)ccc1CNC(=O)[C@H](C)NC(=O)[C@H]1C[C@H](Cc2cc(-c3ccccc3)cs2)CN1 [compound 1399, (2R,4R)—N—((S)-1-(((6-Amino-2-methylpyridin-3-yl)methyl)amino)-1-oxopropan-2-yl)-4-((4-phenylthiophen-2-yl)methyl)pyrrolidine-2-carboxamide Dihydrochloride]
H-bond distance to MASP-2 ASP 627 atom OD2 (Table A1 (H-Bonds), ASP 627 OD2): 3.26
H-bond distance to MASP-2 GLY 656 atom N (Table A1 (H-Bonds), GLY 656 N): 3.21
H-bond distance to MASP-2 GLY 656 atom O (Table A1 (H-Bonds), GLY 656 O): 2.75
H-bond distance to MASP-2 SER 628 atom O (Table A1 (H-Bonds), SER 628 O): 3.15
H-bond distance to MASP-2 SER 654 atom O (Table A1 (H-Bonds), SER 654 O): 3.04
H-bond distance to MASP-2 SER 657 atom O (Table A1 (H-Bonds), SER 657 O): 2.86
van der Waals contact distance, MASP-2 amino acid atom to compound atom (Table A2): 3.7
van der Waals contact distance, MASP-2 HIS 483 atom CD2 (Table A2-1): 3.72
van der Waals contact distance, MASP-2 HIS 483 atom NE2 (Table A2-1): 3.6
van der Waals contact distance, MASP-2 PHE 529 atom CD2 (Table A2-3): 3.85
van der Waals contact distance, MASP-2 PHE 529 atom CE2 (Table A2-3): 3.7
van der Waals contact distance, MASP-2 amino acid atom to compound atom (Table A2-7: SER 628 (CB, O, OG)): 3.61
van der Waals contact distance, VAL 653 CG1 to compound atom (Table A2-11): 3.32
van der Waals contact distance, TRP 655 CA to compound atom (Table A2-12): 3.43
van der Waals contact distance TRP 655 atom CZ3 (Table A2-13, MASP-2 TRP 655 CZ3): 3.42
van der Waals contact distance, MASP-2 amino acid atom to compound atom (Table A2 section before Table A2-8): 3.81
Ligand-pharmacophore element distance, pharmacophore element C2: 0
Ligand-pharmacophore element distance, pharmacophore element C3: 0.14
Ligand-pharmacophore element distance, pharmacophore element C4: 0
Ligand-pharmacophore element distance, pharmacophore element C5: 0
Ligand-pharmacophore element distance, pharmacophore element C6: 0
Ligand-pharmacophore element distance, pharmacophore element C7: 0
Ligand-pharmacophore element distance, pharmacophore element CA1: 0.59
Ligand-pharmacophore element distance, pharmacophore element CA2: 0.85
Ligand-pharmacophore element distance, pharmacophore element CA3: 0
Ligand-pharmacophore element distance, pharmacophore element CA4: 2.39
Ligand-pharmacophore element distance, pharmacophore element CA5: 0
Ligand-pharmacophore element distance, pharmacophore element CA6: 0
d(C3,CA1) [1]: 2.86
d(CA1,N1)2 [1]: 1.38
d(CA1,O1) [1]: 4.40
d(CA1,O2) [1]: 3.92
d(H4,O1) [1]: 4.40
d(H4,O2) [1]: 3.82
d(O1,O2) [1]: 3.33
d(N2,CA2): 5.96
d(O2,H3): 4.09
d(O2,N2): 2.67
a(C3, CA1, O1) (Table A6-1 pharmacophore angle): 149.86
a(CA1, O1, O2) (Table A6-1 pharmacophore angle): 105.80
a(O1, O2, H4) (Table A6-1 pharmacophore angle): 132.84
a(N1, CA1, O1) b) (Table A6-1 pharmacophore angle, Methyl-amino-pyridine compounds): 173.87
a(O1, O2, H3): 145.77
a(O1, O2, N2): 143.45
a(O2, N2, CA2): 157.06
Pharmacophore torsion angle a(C3, CA1, O1, H4) [2]: 24.20
Pharmacophore torsion angle a(H4, O1, O2, H3) [2]: 50.25
Pharmacophore torsion angle a(H4, O1, O2, N2) [2]: 142.63
Pharmacophore torsion angle a(N1, CA1, O1, H4) [2]: 0.87
Pharmacophore torsion angle a(O1, H4, O2, CA1) [2]: −83.35
Pharmacophore torsion angle a(O1, O2, N2, CA2) [3]: 126.87
Pharmacophore torsion angle a(O1, O2, N2, CA4) [3]: 113.10

C[C@H](NC(=O)[C@H]1C[C@@H](c2ccccc2)CCN1)C(=O)NCc1cc(Cl)ccc1O.Cl [1078_3]
Ligand-pharmacophore element distance, pharmacophore element C2: 0.43
Ligand-pharmacophore element distance, pharmacophore element C3: 0
Ligand-pharmacophore element distance, pharmacophore element C4: 0
Ligand-pharmacophore element distance, pharmacophore element C5: 0.45
Ligand-pharmacophore element distance, pharmacophore element C6: 0
Ligand-pharmacophore element distance, pharmacophore element C7: 0
Ligand-pharmacophore element distance, pharmacophore element CA1: 1.53
Ligand-pharmacophore element distance, pharmacophore element CA2: 0.27
Ligand-pharmacophore element distance, pharmacophore element CA3: 0
Ligand-pharmacophore element distance, pharmacophore element CA4: 0
Ligand-pharmacophore element distance, pharmacophore element CA5: 0
Ligand-pharmacophore element distance, pharmacophore element CA6: 0
d(CA1,C5) [1]: 3.13
d(CA1,O1) [1]: 4.44
d(CA1,O2) [1]: 4.54
d(CA1,O4) [1]: 2.75
d(H4,O1) [1]: 3.13
d(H4,O2) [1]: 3.61
d(O1,O2) [1]: 3.17
d(O4,H2) [1]: 0.98
d(N2,C2): 1.45
d(N2,CA2): 5.70
d(O2,H3): 2.05
d(O2,N2): 2.79
a(C5, CA1, O1) (Table A6-1 pharmacophore angle): 162.08
a(CA1, O1, O2) (Table A6-1 pharmacophore angle): 112.44
a(CA1, O4, H2) (Table A6-1 pharmacophore angle): 128.44
a(O1, CA1, O4) (Table A6-1 pharmacophore angle): 67.41
a(O1, O2, H4) (Table A6-1 pharmacophore angle): 124.44
a(O1, O2, H3): 132.07
a(O1, O2, N2): 145.54
a(O2, N2, C2): 126.01
a(O2, N2, CA2): 154.83
Pharmacophore torsion angle a(C5, CA1, O1, H4) [2]: −5.62
Pharmacophore torsion angle a(H4, O1, O2, H3) [2]: −160.53
Pharmacophore torsion angle a(H4, O1, O2, N2) [2]: −166.69
Pharmacophore torsion angle a(O1, H4, O2, CA1) [2]: −82.33
Pharmacophore torsion angle a(O1, O2, N2, C2) [2]: 132.95
Pharmacophore torsion angle a(O1, O2, N2, CA2) [3]: 140.71

C[C@H](NC(=O)[C@H]1C[C@@H](c2ccccc2)CCN1)C(=O)NCc1cc(Cl)ccc1O.Cl [1078_4]
Ligand-pharmacophore element distance, pharmacophore element C2: 0.67
Ligand-pharmacophore element distance, pharmacophore element C3: 0
Ligand-pharmacophore element distance, pharmacophore element C4: 0
Ligand-pharmacophore element distance, pharmacophore element C5: 0.52
Ligand-pharmacophore element distance, pharmacophore element C6: 0
Ligand-pharmacophore element distance, pharmacophore element C7: 0
Ligand-pharmacophore element distance, pharmacophore element CA1: 1.62
Ligand-pharmacophore element distance, pharmacophore element CA2: 0.59
Ligand-pharmacophore element distance, pharmacophore element CA3: 0
Ligand-pharmacophore element distance, pharmacophore element CA4: 0
Ligand-pharmacophore element distance, pharmacophore element CA5: 0
Ligand-pharmacophore element distance, pharmacophore element CA6: 0
d(CA1,C5) [1]: 3.13
d(CA1,O1) [1]: 4.56
d(CA1,O2) [1]: 4.61
d(CA1,O4) [1]: 2.76
d(H4,O1) [1]: 2.27
d(H4,O2) [1]: 2.64
d(O1,O2) [1]: 3.39
d(O4,H2) [1]: 0.97
d(N2,C2): 1.51
d(N2,CA2): 5.66
d(O2,H3): 2.72
d(O2,N2): 2.70
a(C5, CA1, O1) (Table A6-1 pharmacophore angle): 161.60
a(CA1, O1, O2) (Table A6-1 pharmacophore angle): 112.48
a(CA1, O4, H2) (Table A6-1 pharmacophore angle): 128.57
a(O1, CA1, O4) (Table A6-1 pharmacophore angle): 65.56
a(O1, O2, H4) (Table A6-1 pharmacophore angle): 93.17
a(O1, O2, H3): 141.42
a(O1, O2, N2): 146.07
a(O2, N2, C2): 126.96
a(O2, N2, CA2): 155.54
Pharmacophore torsion angle a(C5, CA1, O1, H4) [2]: 32.90
Pharmacophore torsion angle a(H4, O1, O2, H3) [2]: −123.98
Pharmacophore torsion angle a(H4, O1, O2, N2) [2]: −113.42
Pharmacophore torsion angle a(O1, H4, O2, CA1) [2]: −58.33
Pharmacophore torsion angle a(O1, O2, N2, C2) [2]: 124.98
Pharmacophore torsion angle a(O1, O2, N2, CA2) [3]: 136.93
